Reference: PubChem BioAssay (NCI)
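Growth conditions: 96-well plates. Treatment: test compound, 48 hours, 5 concentrations. Analysis: linear interpolation between bracketing concentrations; unreached endpoints set to highest concentration. TGI: concentration producing complete growth inhibition.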

Key:
Assay in all cases: NCI tumour cell line growth inhibition, 48 h
[1] = test system: HCT-15 colon
[2] = test system: BT-549 breast
[3] = test system: T-47D breast
[4] = test system: MCF7 breast
[5] = test system: MDA-MB-231 breast
[6] = test system: HCT-116 colon
[7] = test system: PC-3 prostate
[8] = test system: SK-MEL-5 melanoma
[9] = test system: EKVX NSCLC
[10] = test system: SNB-19 CNS
[11] = test system: SW-620 colon
[12] = test system: ACHN renal
[13] = test system: OVCAR-4 ovarian
[14] = test system: A498 renal
[15] = test system: UACC-62 melanoma
[16] = test system: SF-295 CNS
[17] = test system: KM12 colon
[18] = test system: A549 NSCLC
[19] = test system: SK-OV-3 ovarian
[20] = test system: SK-MEL-28 melanoma
[21] = test system: IGROV1 ovarian
[22] = test system: NCI-H23 lung
[23] = test system: OVCAR-8 ovarian
[24] = test system: RXF 393 renal
[25] = test system: HCC-2998 colon
[26] = test system: NCI-H522 lung
[27] = test system: MDA-MB-435
[28] = test system: UACC-257 melanoma
[29] = test system: SN12C renal
[30] = test system: SR leukemia
[31] = test system: NCI-H226 lung
[32] = test system: 786-0 renal
[33] = test system: NCI/ADR-RES ovarian
[34] = test system: TK-10 renal
[35] = test system: OVCAR-3 ovarian
[36] = test system: LOX IMVI melanoma
[37] = test system: NCI-H460 lung
[38] = test system: M14 melanoma
[39] = test system: HT29 colon
[40] = test system: HS 578T breast
[41] = test system: SK-MEL-2 melanoma
[42] = test system: SF-539 CNS
[43] = test system: OVCAR-5 ovarian
[44] = test system: CAKI-1 renal
[45] = test system: SF-268 CNS
[46] = test system: MOLT-4 leukemia
[47] = test system: HOP-62 NSCLC
[48] = test system: U251 CNS
[49] = test system: SNB-75 CNS
[50] = test system: RPMI-8226 leukemia
[51] = test system: COLO 205 colon
[52] = test system: CCRF-CEM leukemia
[53] = test system: DU-145 prostate
[54] = test system: K-562 leukemia
[55] = test system: MDA-N
[56] = test system: MALME-3M melanoma
[57] = test system: HOP-92 NSCLC
[58] = test system: UO-31 renal
[59] = test system: HL-60(TB) leukemia

CCCCC1(N=[N+]=[N-])C(=O)c2cccc3c2N(CCC3)C1=O (stereo unspecified)
TGI [1]: > 100 µM
TGI [2]: > 100 µM
TGI [3]: > 100 µM
TGI [4]: > 100 µM
TGI [5]: > 100 µM
TGI [6]: > 100 µM
TGI [7]: > 100 µM
TGI [8]: > 100 µM
TGI [9]: > 100 µM
TGI [10]: > 100 µM
TGI [11]: > 100 µM
TGI [12]: > 100 µM
TGI [13]: > 100 µM
TGI [14]: > 100 µM
TGI [15]: > 100 µM
TGI [16]: > 100 µM
TGI [17]: > 100 µM
TGI [18]: > 100 µM
TGI [19]: > 100 µM
TGI [20]: > 100 µM
TGI [21]: > 100 µM
TGI [22]: > 100 µM
TGI [23]: > 100 µM
TGI [24]: > 100 µM
TGI [25]: > 100 µM
TGI [26]: > 100 µM
TGI [27]: > 100 µM
TGI [28]: > 100 µM
TGI [29]: > 100 µM
TGI [30]: > 100 µM
TGI [31]: > 100 µM
TGI [32]: > 100 µM
TGI [33]: > 100 µM
TGI [34]: > 100 µM
TGI [35]: > 100 µM
TGI [36]: > 100 µM
TGI [37]: > 100 µM
TGI [38]: > 100 µM
TGI [39]: > 100 µM
TGI [40]: > 100 µM
TGI [41]: > 100 µM
TGI [42]: > 100 µM
TGI [43]: > 100 µM
TGI [44]: > 100 µM
TGI [45]: > 100 µM
TGI [46]: > 100 µM
TGI [47]: > 100 µM
TGI [48]: > 100 µM
TGI [49]: > 100 µM
TGI [50]: > 100 µM
TGI [51]: > 100 µM
TGI [52]: > 100 µM
TGI [53]: > 100 µM
TGI [54]: > 100 µM
TGI [55]: > 100 µM
TGI [56]: > 100 µM
TGI [57]: > 100 µM

O=C(O)Cc1ccc(Oc2nc3ccccc3nc2-c2cccs2)cc1
TGI [1]: > 100 µM
TGI [2]: > 100 µM
TGI [3]: 63.6 µM
TGI [4]: > 100 µM
TGI [5]: > 100 µM
TGI [6]: > 100 µM
TGI [7]: > 100 µM
TGI [8]: > 100 µM
TGI [9]: > 100 µM
TGI [10]: > 100 µM
TGI [11]: > 100 µM
TGI [12]: > 100 µM
TGI [13]: > 100 µM
TGI [14]: 84.7 µM
TGI [15]: > 100 µM
TGI [16]: > 100 µM
TGI [17]: > 100 µM
TGI [18]: > 100 µM
TGI [19]: > 100 µM
TGI [20]: > 100 µM
TGI [21]: > 100 µM
TGI [58]: > 100 µM
TGI [22]: > 100 µM
TGI [23]: > 100 µM
TGI [24]: 56.5 µM
TGI [25]: > 100 µM
TGI [26]: > 100 µM
TGI [27]: > 100 µM
TGI [28]: > 100 µM
TGI [29]: > 100 µM
TGI [30]: > 100 µM
TGI [59]: > 100 µM
TGI [31]: > 100 µM
TGI [32]: > 100 µM
TGI [33]: > 100 µM
TGI [34]: > 100 µM
TGI [35]: > 100 µM
TGI [36]: > 100 µM
TGI [37]: > 100 µM
TGI [38]: > 100 µM
TGI [39]: > 100 µM
TGI [40]: > 100 µM
TGI [41]: > 100 µM
TGI [42]: > 100 µM
TGI [43]: > 100 µM
TGI [44]: > 100 µM
TGI [45]: > 100 µM
TGI [46]: > 100 µM
TGI [47]: > 100 µM
TGI [48]: > 100 µM
TGI [49]: 83.2 µM
TGI [50]: > 100 µM
TGI [51]: 80.1 µM
TGI [52]: > 100 µM
TGI [53]: > 100 µM
TGI [54]: > 100 µM
TGI [55]: > 100 µM
TGI [56]: > 100 µM
TGI [57]: > 100 µM
